Source: patent US20250375456A1, “AGENT FOR PREVENTING OR TREATING RESPIRATORY DISEASE” (Nippon Chemiphar Co., Ltd., priority 2021, published 2025)

Tests used:
Assay type in all cases: in vivo, guinea pig
[1] = test system: cigarette smoke-exposed guinea pigs; assay: Measurement of respiratory function (double flow plethysmography) in cigarette smoke-exposed model
Source text: (§1) Male Hartley guinea pigs (manufactured by Japan SLC, Inc., Slc: Hartley, SPF) were used in the test. The guinea pigs were purchased at 5 weeks old. The weights at the time of the purchase were about 300 to 350 g. After arrival, the guinea pigs were provided with an acclimation period of 9 days, including the day of receipt. During the above period, the clinical symptoms of the animals were observed once a day. In addition, on the last day of the acclimation period, the animals were weighed and the health status was measured. It was confirmed that there were no abnormal clinical signs or […] in any of the animals. Body weights on the last day of the acclimation (that is, at the beginning of exposure to cigarette smoke) were about 390 to 450 g.
(§2) Experimental animals were prepared with reference to Non Patent Literature 2. Specifically, guinea pigs exposed to cigarette smoke using a smoking exposure system (INH06-CIG01A, INH06-CIG02, M.I.P.S. Inc.) were used in the experiment. Each guinea pig was placed in an exposure holder (one per cage), and the holder was secured in the exposure chamber. The animals were exposed to the smoke of 30 cigarette per day, 5 days a week, for 4 weeks, the smoke being generated by a mainstream smoke generator. In the fourth week, the exposure was for 4 days (smoking period was from […]). As for the cigarettes, Peace (no filter, tar: 28 mg, nicotine: 2.3 mg, Japan Tobacco Inc., Peace is a registered trademark of Japan Tobacco Inc.) was used.
Unless otherwise specified, various evaluations were performed on the day after the last cigarette smoke-exposure in the second week (Day 13) and the day after the last cigarette smoke-exposure (Day 26).
The solvent of Compound A was used as the placebo of the control group.
(§3) The placebo and each drug were administered by forced oral administration into the stomach using a disposable syringe equipped with a gastric catheter. As for the administration frequency, repetitive administration was performed once a day for 25 days from Day 1 to Day 25. The administration time was 1 hour (±5 minutes) before the cigarette smoke-exposure. The dose was 5 mL/kg. The actual amount of each drug administered to each guinea pig was calculated based on the most recent weight.
Respiratory function in conscious guinea pigs was measured by double flow plethysmography using a respiratory function measurement system (Pulmos-I, M.I.P.S Inc.). The measurement parameters were specific airway resistance (sRaw), tidal volume (TV), respiratory rate (RR), minute volume (MV), and peak expiratory flow (PEF). The average value of the measurement values obtained with 100 breaths was considered as the measurement value for each measurement day.

[2] = Measurement of weights in cigarette smoke-exposed model; conditions: Day 1 to Day 26; Compound A 3, 10, 30 mg/kg, gefapixant 10 mg/kg, oral once a day
Source text: as §1
Experimental animals were prepared with reference to Non Patent Literature 2. Specifically, guinea pigs exposed to cigarette smoke using a smoking exposure system (INH06-CIG01A, INH06-CIG02, M.I.P.S. Inc.) were used in the experiment. […]
The placebo and each drug were administered by forced oral administration into the stomach using a disposable syringe equipped with a gastric catheter. […] The actual amount of each drug administered to each guinea pig was calculated based on the most recent weight.
The weights were measured with an electronic balance (MSA4202S, Sartorius Japan K.K.) before the research operation on Days 1, 8, 15, 22, and 26.

[3] = test system: cigarette smoke-exposed guinea pigs; assay: Number of cells in bronchoalveolar lavage fluid (BALF) in cigarette smoke-exposed model
Source text: as §1, §2, §3
The measurement was performed after the day after the last cigarette smoke exposure (Day 26).
After sacrificing the guinea pigs by bleeding under anesthesia, bronchoalveolar lavage fluid (BALF) was collected according to the following operating procedure.
(1) After ligating the left main bronchus with a thread, a cannula was inserted into the trachea and fixed.
(2) 5 mL of saline was injected into the right lung through the cannula, and the lavage fluid was collected by gentle suctioning. BALF was collected by repeating this procedure twice (a total of 10 mL).
The pellet was suspended in 1 mL of saline, and the number of WBCs were counted using an automated hematology analyzer with a BALF analysis area (XT-2000iV, Sysmex Corporation). The counting was performed by adjusting the smear preparation. The smear preparation was performed by centrifuging the cell suspension again and suspending the obtained pellet in 75% FBS (fetal bovine serum and saline). After drying, the smear preparation was Wright-Giemsa stained.
The percentages of neutrophils, macrophages, eosinophil, and lymphocytes with respect to total WBCs were obtained, and the numbers of the cells per 1 μL were calculated.

[4] = test system: cigarette smoke-exposed guinea pigs; assay: Measurement of citric acid-induced cough reflex in cigarette smoke-exposed model; conditions: for mean number of cough reflexes: Day 20 or 21, 2 hours after administration, 0.1 mol/L citric acid, 15 minutes
Source text: as §1, §2, §3
Measurements were performed 1 day or 2 days after the last cigarette smoke exposure during Week 3 (Day 20 or Day 21).
The measurements were performed 2 hours after the administration of the placebo or various drugs.
The guinea pigs were placed in the inhalation chamber of the respiratory function measurement system (Pulmos-I, M.I.P.S. Co.). Cough reflex was induced by inhaling citric acid (lot no. M8K7523, manufactured by NACALAI TESQUE, INC.) for 3 minutes from the front side of the chamber using an ultrasonic nebulizer. […] The presence or absence of a cough reflex was determined from the sound during the cough reflex, the movement of the animal, and the respiratory function. Before the measurement on the day of the administration, the animals were placed in the chamber for 15 minutes or longer to acclimatize to the experimental environment. Note that the respiratory function (respiratory rate (RR), tidal volume (TV), peak expiratory flow (PEF), and minute volume (MV)) was measured immediately before the citric acid inhalation. The respiratory function was measured by the body side sensor of the respiratory function measurement system.

[5] = Day 13, 10 mg/kg oral once a day
[6] = Day 26, 10 mg/kg oral once a day
[7] = Day 26, high-dose group 30 mg/kg oral
[8] = Day 26, low-dose group 3 mg/kg oral
[9] = Day 26, medium-dose group 10 mg/kg oral

For O=C1CC(=O)N(c2ccc(NC(=O)c3ccccc3I)cc2)c2ccc3ccccc3c2N1 [Compound B48, 5-[4-(2-iodobenzoylamino)phenyl]-1H-naphtho[1,2-b][1,4]diazepine-2,4(3H,5H)-dione], the “minute volume (MV), dose dependence” value ([1]; 3, 10, 30 mg/kg oral) was “tendency of increasing in a dose-dependent manner”, the “peak expiratory flow (PEF), dose dependence” value ([1]; 3, 10, 30 mg/kg oral) was “tendency of increasing in a dose-dependent manner” and the “tidal volume (TV), dose dependence” value ([1]; 3, 10, 30 mg/kg oral) was “tendency of increasing in a dose-dependent manner”. The “sRaw, dose dependence” value ([1]; 3, 10, 30 mg/kg oral, Day 13 and Day 26) was “decreased in a dose-dependent manner”, the “specific airway resistance (sRaw)” value [1, 5] was 1.711 cmH2O·sec and the “specific airway resistance (sRaw)” value ([1]; Day 13, high-dose group 30 mg/kg oral once a day) was 1.556 cmH2O·sec. For the same compound, the “sRaw compared to the control (placebo) group” value ([1]; Day 13, high-dose group 30 mg/kg oral, P<0.05) was “significant decrease”, the “specific airway resistance (sRaw)” value ([1]; Day 13, low-dose group 3 mg/kg oral once a day) was 1.755 cmH2O·sec and the “specific airway resistance (sRaw)” value [1, 6] was 2.017 cmH2O·sec. For the same compound, the “respiratory rate (RR), dose dependence” value ([1]; Day 26, 3, 10, 30 mg/kg oral) was “tendency of decreasing in a dose-dependent manner”, the “specific airway resistance (sRaw)” value ([1]; Day 26, high-dose group 30 mg/kg oral once a day) was 1.994 cmH2O·sec and the “specific airway resistance (sRaw)” value ([1]; Day 26, low-dose group 3 mg/kg oral once a day) was 2.105 cmH2O·sec. For the same compound, the “PEF compared to the control (placebo) group” value ([1]; all Compound A groups (3, 10, 30 mg/kg)) was “higher”, the “MV compared to the control (placebo) group” value ([1]; medium-dose group (10 mg/kg) and high-dose group (30 mg/kg)) was “higher” and the “weight changes compared to the control (placebo) group” value [2] was “comparable”. For the same compound, the “mean number of macrophages in BALF” value ([3]; Day 26, 10 mg/kg oral) was 20.2 ×10^2 cells/μL, the “mean number of total WBCs in BALF” value ([3]; Day 26, 10 mg/kg oral) was 30.1 ×10^2 cells/μL and the “macrophages, dose dependence” value ([3]; Day 26, 3, 10, 30 mg/kg oral) was “smaller than that in the control (placebo) group in a dose-dependent manner”. For the same compound, the “neutrophils, dose dependence” value ([3]; Day 26, 3, 10, 30 mg/kg oral) was “tendency of decreasing in a dose-dependent manner”, the “number of eosinophils compared to the control (placebo) group” value ([3]; Day 26, 3, 10, 30 mg/kg oral) was “no significant difference” and the “number of lymphocytes compared to the control (placebo) group” value ([3]; Day 26, 3, 10, 30 mg/kg oral) was “no significant difference”. For the same compound, the “total WBCs, dose dependence” value ([3]; Day 26, 3, 10, 30 mg/kg oral) was “smaller than that in the control (placebo) group in a dose-dependent manner”, the “mean number of eosinophils in BALF” value [3, 7] was 5.6 ×10^2 cells/μL and the “mean number of lymphocytes in BALF” value [3, 7] was 1.0 ×10^2 cells/μL. The “mean number of macrophages in BALF” value [3, 7] was 12.0 ×10^2 cells/μL, the “mean number of neutrophils in BALF” value [3, 7] was 2.3 ×10^2 cells/μL and the “mean number of total WBCs in BALF” value [3, 7] was 20.9 ×10^2 cells/μL. For the same compound, the “number of macrophages compared to the control (placebo) group” value [3, 7] was “significantly suppressed”, the “total number of WBCs compared to the control (placebo) group” value [3, 7] was “significantly suppressed” and the “mean number of eosinophils in BALF” value [3, 8] was 4.8 ×10^2 cells/μL. The “mean number of lymphocytes in BALF” value [3, 8] was 1.1 ×10^2 cells/μL, the “mean number of macrophages in BALF” value [3, 8] was 25.0 ×10^2 cells/μL and the “mean number of neutrophils in BALF” value [3, 8] was 3.1 ×10^2 cells/μL. For the same compound, the “mean number of total WBCs in BALF” value [3, 8] was 33.9 ×10^2 cells/μL, the “mean number of eosinophils in BALF” value [3, 9] was 6.1 ×10^2 cells/μL and the “mean number of lymphocytes in BALF” value [3, 9] was 1.2 ×10^2 cells/μL. For the same compound, the “mean number of neutrophils in BALF” value [3, 9] was 2.5 ×10^2 cells/μL, the “number of cough reflexes compared to the control (placebo) group” value ([4]; 10 mg/kg oral) was “no significant difference” and the “mean number of cough reflexes” value ([4]; 10 mg/kg oral) was 6.9. For the same compound, the “number of cough reflexes compared to the control (placebo) group” value ([4]; high-dose group 30 mg/kg oral) was “tendency of suppressing the cough reflex”, the “mean number of cough reflexes” value ([4]; high-dose group 30 mg/kg oral) was 3.6 and the “number of cough reflexes compared to the control (placebo) group” value ([4]; low-dose group 3 mg/kg oral) was “no significant difference”. For the same compound, the “mean number of cough reflexes” value ([4]; low-dose group 3 mg/kg oral) was 6.0.

In the case of COc1cc(C(C)C)c(Oc2cnc(N)nc2N)cc1S(N)(=O)=O [Gefapixant, reference compound], the “effect on the respiratory function” value ([1]; 10 mg/kg oral) is reported as “did not have a significant effect”, the “specific airway resistance (sRaw)” value [1, 5] is reported as 1.675 cmH2O·sec and the “sRaw compared to the control (placebo) group” value ([1]; Day 13 and Day 26, 10 mg/kg oral) is reported as “no significant difference”. For the same compound, the “specific airway resistance (sRaw)” value [1, 6] was 2.066 cmH2O·sec, the “weight changes compared to the control (placebo) group” value [2] was “comparable” and the “effect on the changes in the number of cells in BALF” value ([3]; 10 mg/kg oral) was “did not have an effect”. For the same compound, the “mean number of macrophages in BALF” value ([3]; Day 26, 10 mg/kg oral) was 24.4 ×10^2 cells/μL, the “mean number of total WBCs in BALF” value ([3]; Day 26, 10 mg/kg oral) was 40.0 ×10^2 cells/μL and the “number of macrophages compared to the control (placebo) group” value ([3]; Day 26, 10 mg/kg oral) was “no significant different”. The “total number of WBCs compared to the control (placebo) group” value ([3]; Day 26, 10 mg/kg oral) was “no significant different”, the “number of cough reflexes compared to the control (placebo) group” value ([4]; 10 mg/kg oral) was “no significant difference” and the “mean number of cough reflexes” value ([4]; 10 mg/kg oral) was 4.5.
